Results: US9499492B2, “4-(ortho)-fluorophenyl-5-fluoropyrimidin-2-yl amines containing a sulfoximine group” (BAYER PHARMA AKTIENGESELLSCHAFT, priority 2012, dated 2016)
Read-outs that look alike come from different tables or passages of the source.

Columns and labels:
CDK9/CycT1 [1] = target: T1, CDK9/CycT1 (Homo sapiens (Human), UniProt P50750); experiment: CDK9/CycT1 kinase assay (Method 1a); format: biochemical; conditions: for IC50: 10 μM ATP; for Selectivity CDK9/CDK2: derived from Methods 1a. and 2.
T1 sequence (P50750 whole entry): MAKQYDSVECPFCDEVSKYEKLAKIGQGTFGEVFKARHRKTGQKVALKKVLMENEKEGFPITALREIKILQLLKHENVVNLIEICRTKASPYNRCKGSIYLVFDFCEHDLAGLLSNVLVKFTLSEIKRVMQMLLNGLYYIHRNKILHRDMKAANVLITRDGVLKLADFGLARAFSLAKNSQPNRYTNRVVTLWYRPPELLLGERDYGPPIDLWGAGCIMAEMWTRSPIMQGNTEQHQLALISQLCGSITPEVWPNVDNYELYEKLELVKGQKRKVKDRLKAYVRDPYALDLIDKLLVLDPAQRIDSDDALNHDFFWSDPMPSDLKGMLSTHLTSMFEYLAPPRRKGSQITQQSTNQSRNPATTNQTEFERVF
T1 sequence (O60563 whole entry partner): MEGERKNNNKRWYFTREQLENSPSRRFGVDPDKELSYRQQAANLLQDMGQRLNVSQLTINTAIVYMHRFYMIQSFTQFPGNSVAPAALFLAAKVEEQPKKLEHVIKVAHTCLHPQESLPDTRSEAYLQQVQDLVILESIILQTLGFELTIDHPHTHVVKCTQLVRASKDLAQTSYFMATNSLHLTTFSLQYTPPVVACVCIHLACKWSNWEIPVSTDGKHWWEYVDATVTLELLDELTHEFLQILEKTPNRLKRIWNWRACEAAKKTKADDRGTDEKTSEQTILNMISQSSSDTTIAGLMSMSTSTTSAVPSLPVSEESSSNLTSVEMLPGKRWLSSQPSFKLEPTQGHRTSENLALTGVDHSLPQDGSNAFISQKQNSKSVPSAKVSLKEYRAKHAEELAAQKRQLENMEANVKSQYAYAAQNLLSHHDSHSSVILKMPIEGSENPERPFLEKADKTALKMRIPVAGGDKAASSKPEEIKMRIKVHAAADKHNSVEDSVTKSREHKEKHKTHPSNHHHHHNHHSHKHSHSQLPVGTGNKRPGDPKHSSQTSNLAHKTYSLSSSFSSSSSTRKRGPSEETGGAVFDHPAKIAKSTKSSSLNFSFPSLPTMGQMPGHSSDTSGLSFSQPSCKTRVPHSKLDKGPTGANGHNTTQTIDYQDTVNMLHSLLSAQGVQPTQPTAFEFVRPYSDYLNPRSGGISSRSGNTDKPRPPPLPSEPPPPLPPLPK

CDK9/CycT1 [2] = target: T1, CDK9/CycT1; experiment: CDK9/CycT1 high ATP kinase assay (Method 1b); format: biochemical; conditions: 2 mM ATP
Summary of the method: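 Full-length His-tagged human CDK9/CycT1 (insect cells, ~0.5 μg/ml) pre-incubated 15 min at 22 °C with compound in Tris pH 8.0/MgCl2/DTT buffer; biotinylated peptide substrate, high ATP. After detection reagents, 1 h at 22 °C; TR-FRET 665/620 nm emission ratio (350 nm excitation) measured phosphorylation.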

[3] = tested on: HeLa, human cervical tumour cells; experiment: Proliferation assay, HeLa (Method 3); format: cell-based; conditions: 4 days, crystal violet, read-out: Inhibition of HeLa cell proliferation IC50
Summary of the method: (§1)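 Cells were seeded and, after 24 h, exposed to compounds at 0.001–10 µM (final DMSO 0.5%) for 4 days. Cell number was measured by glutaraldehyde fixation, crystal violet staining and absorbance at 595 nm. Values were normalised to a zero-point plate (0%) and untreated cells (100%).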

[4] = tested on: A2780, human ovarian carcinoma cells; experiment: Proliferation assay, A2780 (Method 3); format: cell-based; conditions: A2780, 4 days, crystal violet, read-out: Inhibition of A2780 cell proliferation IC50
Summary of the method: as §1

[5] = tested on: HeLa-MaTu-ADR, multidrug-resistant human cervical carcinoma cells; experiment: Proliferation assay, HeLa-MaTu-ADR (Method 3); format: cell-based; conditions: 4 days, crystal violet, read-out: Inhibition of HeLa-MaTu-ADR cell proliferation IC50
Procedure: (§2) After 24 hours, the cells of one plate (zero-point plate) were stained with crystal violet (see below), while the medium of the other plates was replaced by fresh culture medium (200 μl), to which the test substances were added in various concentrations (0 μM, as well as in the range of 0.001-10 μM; the final concentration of the solvent dimethyl sulfoxide was 0.5%). The cells were incubated for 4 days in the presence of test substances. Cell proliferation was determined by staining the cells with crystal violet: the cells were fixed by adding 20 μl/measuring point of an 11% glutaric aldehyde solution for 15 minutes at room temperature. After three washing cycles of the fixed cells with water, the plates were dried at room temperature. The cells were stained by adding 100 μl/measuring point of a 0.1% crystal violet solution (pH 3.0). After three washing cycles of the stained cells with water, the plates were dried at room temperature. The dye was dissolved by adding 100 μl/measuring point of a 10% acetic acid solution. The extinction was determined by photometry at a wavelength of 595 nm. The change of cell number, in percent, was calculated by normalization of the measured values to the extinction values of the zero-point plate (=0%) and the extinction of the untreated (0 μm) cells (=100%).

[6] = tested on: NCI-H460, human non-small cell lung carcinoma cells; experiment: Proliferation assay, NCI-H460 (Method 3); format: cell-based; conditions: NCI-H460, 4 days, crystal violet, read-out: Inhibition of H460 cell proliferation IC50
Procedure: as §2

[7] = tested on: B16F10, mouse melanoma cells; experiment: Proliferation assay, B16F10 (Method 3); format: cell-based; conditions: B16F10, 4 days, crystal violet, read-out: Inhibition of B16F10 cell proliferation IC50
Procedure: as §2

[8] = tested on: DU 145, hormone-independent human prostate carcinoma cells; experiment: Proliferation assay, DU 145 (Method 3); format: cell-based; conditions: DU145, 4 days, crystal violet, read-out: Inhibition of DU145 cell proliferation IC50
Procedure: as §2

[9] = tested on: Caco-2, human colorectal carcinoma cells; experiment: Proliferation assay, Caco-2 (Method 3); format: cell-based; conditions: Caco-2, 4 days, crystal violet, read-out: Inhibition of Caco-2 cell proliferation IC50
Procedure: as §2

IC50 (CDK9/CycT1 [1])	Selectivity CDK9/CDK2 (CDK9/CycT1 [1])	IC50 (CDK9/CycT1 [2])	IC50 ([3]; Homo sapiens, 96 h)	IC50 [4]	IC50 ([5]; Homo sapiens, 96 h)	IC50 ([6]; Homo sapiens, NCI-H460, 96 h)	IC50 ([7]; Mus musculus, B16-F10, 96 h)	IC50 [3]	IC50 ([8]; Homo sapiens, DU-145, 96 h)	IC50 ([9]; Homo sapiens, Caco-2, 96 h)	IC50 ([4]; Homo sapiens, A2780, 96 h)	IC50 [5]	IC50 [6]	IC50 [8]	IC50 [9]	IC50 [7]	SMILES
12 nM	98	105 nM	470 nM														CS(=O)(Cc1cc(Nc2ncc(F)c(-c3ccc(F)cc3F)n2)cc(C(F)(F)F)c1)=NC(N)=O (racemic) [Example 7, (rac)-1-{[3-{[4-(2,4-Difluorophenyl)-5-fluoropyrimidin-2-yl]amino}-5-(trifluoromethyl)benzyl](methyl)oxido-λ^6-sulfanylidene}urea]
4 nM	88	16 nM		970 nM	200 nM	350 nM	380 nM	290 nM	250 nM	230 nM							CS(=O)(Cc1cc(Nc2ncc(F)c(-c3ccc(F)cc3F)n2)cc(C(F)(F)F)c1)=NC(N)=O (single isomer, unassigned) [Example 23, 1-{[3-{[4-(2,4-Difluorophenyl)-5-fluoropyrimidin-2-yl]amino}-5-(trifluoromethyl)benzyl](methyl)oxido-λ^6-sulfanylidene}urea]
13 nM	105	39 nM	440 nM														CS(=O)(Cc1cc(Nc2ncc(F)c(-c3ccc(F)cc3F)n2)cc(C(F)(F)F)c1)=NC#N (racemic) [Example 1, (rac)-{[3-{[4-(2,4-Difluorophenyl)-5-fluoropyrimidin-2-yl]amino}-5-(trifluoromethyl)benzyl](methyl)oxido-λ^6-sulfanylidene}cyanamide]
10 nM	88	251 nM	960 nM														CS(=N)(=O)Cc1cc(Nc2ncc(F)c(-c3ccc(F)cc3F)n2)cc(C(F)(F)F)c1 (racemic) [Example 4, (rac)-4-(2,4-Difluorophenyl)-5-fluoro-N-{3-[(S-methylsulfonimidoyl)methyl]-5-(trifluoromethyl)phenyl}pyrimidin-2-amine]
7 nM	166	29 nM	350 nM		320 nM	360 nM	390 nM		310 nM	300 nM	130 nM						CS(=O)(Cc1cc(Nc2ncc(F)c(-c3ccc(F)cc3F)n2)cc(C(F)(F)F)c1)=NC#N (single isomer, unassigned) [Example 2, {[3-{[4-(2,4-Difluorophenyl)-5-fluoropyrimidin-2-yl]amino}-5-(trifluoromethyl)benzyl](methyl)oxido-λ^6-sulfanylidene}cyanamide]
6 nM	263	6 nM		268 nM	304 nM	483 nM	406 nM	331 nM	397 nM	282 nM							CS(=N)(=O)Cc1cc(Nc2ncc(F)c(-c3ccc(F)cc3F)n2)cc(S(F)(F)(F)(F)F)c1 (single isomer, unassigned) [Example 32, 4-(2,4-Difluorophenyl)-5-fluoro-N-{3-[(S-methylsulfonimidoyl)methyl]-5-(pentafluoro-λ^6-sulfanyl)phenyl}pyrimidin-2-amine]
24 nM	26	892 nM	2210 nM								110 nM						CS(=N)(=O)Cc1cc(Cl)cc(Nc2ncc(F)c(-c3ccc(F)cc3F)n2)c1 (racemic) [Example 15, (rac)-N-{3-chloro-5-[(S-methylsulfonimidoyl)methyl]phenyl}-4-(2,4-difluorophenyl)-5-fluoropyrimidin-2-amine]
16 nM	98	99 nM	278 nM	246 nM			611 nM					495 nM	675 nM	507 nM	716 nM		CS(=O)(Cc1cc(Nc2ncc(F)c(-c3ccc(F)cc3F)n2)cc(S(F)(F)(F)(F)F)c1)=NC(N)=O (single isomer, unassigned) [Example 33, 1-{[3-{[4-(2,4-Difluorophenyl)-5-fluoropyrimidin-2-yl]amino}-5-(pentafluoro-λ^6-sulfanyl)benzyl](methyl)oxido-λ^6-sulfanylidene}urea]
8 nM	170	32 nM		260 nM				590 nM				200 nM	340 nM	370 nM	300 nM	340 nM	CS(=O)(Cc1cc(Nc2ncc(F)c(-c3ccc(F)cc3F)n2)cc(C(F)(F)F)c1)=NC#N (single isomer, unassigned) [Example 3, {[3-{[4-(2,4-Difluorophenyl)-5-fluoropyrimidin-2-yl]amino}-5-(trifluoromethyl)benzyl](methyl)oxido-λ^6-sulfanylidene}cyanamide]
6 nM	210	5 nM	262 nM		120 nM	359 nM	363 nM		311 nM	222 nM	185 nM						CS(=O)(Cc1cc(Nc2ncc(F)c(-c3ccc(F)cc3F)n2)cc(S(F)(F)(F)(F)F)c1)=NC#N (racemic) [Example 28, (rac)-{[3-{[4-(2,4-Difluorophenyl)-5-fluoropyrimidin-2-yl]amino}-5-(pentafluoro-λ^6-sulfanyl)benzyl](methyl)oxido-λ^6-sulfanylidene}cyanamide]
